One series deals with human skin. Particulars: known; cited from earlier work.
A further series deals with RARγ. Description: chimeric receptor transactivation assay, RARγ. Particulars: read-out: RAR EC50 γ. It counts as cell-based. The text has this:
(§1) Assays described below measure the ability of a compound to bind to, and/or activate various retinoid receptor subtypes. When in these assays a compound binds to a given receptor subtype and activates the transcription of a reporter gene through that subtype, then the compound is considered an agonist of that receptor subtype. […] In the below described assays the ability of the compounds to bind to RARα, […], RARγ, […] and RXRγ receptors, and the ability or inability of the compounds to activate transcription of a reporter gene through these receptor subtypes can be tested.
(§2) The results obtained in this assay are expressed in EC50 numbers, as they are also in the chimeric receptor transactivation assay. The results of ligand binding assay are expressed in Kd numbers.

For series [1], the system named is RARβ. Nature of the series: chimeric receptor transactivation assay, RARβ. Particulars: read-out: RAR EC50 β. Format: cell-based.
Excerpt: as §1, §2

In the next series the test system is skin of hairless mice. Nature of the series: Topical Skin Irritation Test (cutaneous toxicity / Blackjack score). Format: in vivo, hairless mouse (Cr1:SKH1-hrBR). Particulars: topical once daily days 1-5, mean±SD, range 0-21. An excerpt: Mice were housed individually throughout the dosing period.
Doses are disclosed as nmol/25 g.
The grading scale used is as follows:
Values can range from 0-9.
Values can range from 0-8.

Another series concerns psoriasis. To be noted: prior art; cited from earlier work.
Series [2] deals with T1, RARβ (Homo sapiens, UniProt P10826).
T1 sequence (P10826 1-455): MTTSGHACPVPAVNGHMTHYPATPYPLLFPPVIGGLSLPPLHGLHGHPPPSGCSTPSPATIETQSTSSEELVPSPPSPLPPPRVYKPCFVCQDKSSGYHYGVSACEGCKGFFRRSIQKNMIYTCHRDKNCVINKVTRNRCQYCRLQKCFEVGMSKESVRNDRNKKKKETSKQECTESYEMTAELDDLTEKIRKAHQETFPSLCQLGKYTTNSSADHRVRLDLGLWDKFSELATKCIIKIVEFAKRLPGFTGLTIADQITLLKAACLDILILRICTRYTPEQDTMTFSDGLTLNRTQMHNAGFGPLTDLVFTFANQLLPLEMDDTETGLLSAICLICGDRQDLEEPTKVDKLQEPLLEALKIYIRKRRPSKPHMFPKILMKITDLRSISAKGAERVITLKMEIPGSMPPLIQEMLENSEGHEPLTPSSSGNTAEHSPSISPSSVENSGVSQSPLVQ
Nature of the series: ligand binding assay, RARβ. Particulars: read-out: RAR Kd β.
Excerpt: as §1, §2

Data on 18 compounds can be found in patent US6303785A, “Compounds having activity as inhibitors of cytochrome P450RAI” (Allergan Sales, Inc., priority 2000, dated 2001).

The EC50 is the midpoint of the concentration-response curve. What is called Kd is a measure of binding affinity in units of concentration.

Some results are limits rather than exact numbers.

With `CC1=C(/C=C/C(C)=C/C=C/C(C)=C/C(=O)O)C(C)(C)CCC1` [ATRA, all-trans-retinoic acid], in the series on human skin, the “skin irritation in humans (in words)” value is recorded as “substantial skin irritation”.
`CCc1cc(C#Cc2ccc(C(=O)O)cc2)ccc1C1(OCc2ccccc2)CC1` [Compound 93, 4-[4-(1-Benzyloxycyclopropyl)-3-ethyl-phenylethynyl]-benzoic acid]: the 50% effective concentration (EC50) in the series on RARγ turned out to be 10 nM; with RARβ [1], 20 nM.
`CC1(C)CCC(=O)c2ccc(C#Cc3ccc(CC(=O)O)cc3)cc21` [Compound 5, 4-[(8,8-Dimethyl1-5-oxo-5,6,7,8-tetrahydro-naphthalene-2-yl-ethynyl)-phenyl]-acetic acid]: the “Cutaneous Toxicity Score (Blackjack Score)” value (from here on “Cutaneous Toxicity Score”) turned out to be 0 in the series on skin of hairless mice (100 nmole (per 25 g)) and 6 ± 3 in the series with skin of hairless mice (1000 nmole (per 25 g)).
Consider `CC1(C)CCC(=O)c2ccc(C#Cc3ccc(C(=O)O)c(F)c3)cc21` [Compound 10, 2-Fluoro-4(8,8dimethyl-5-oxo-5,6,7,8-tetrahydro-naththalen-2yl-ethynyl)benzoic acid], for which the EC50 came out at 6 nM in the series on RARγ and 0.3 nM in the series with RARβ [1].
As to `CC1(C)CCC(n2ccnc2)c2ccc(C#Cc3ccc(CC(=O)O)cc3)cc21` (centres unmarked) [Compound 137, [4-(5-Imidazol-1-yl-8,8-dimethyl-5,6,7,8-tetrahydro-naphthalen-2-yl-ethynyl)-phenyl]-acetic acid], the entries for the “Cutaneous Toxicity Score” value in the series on skin of hairless mice (100 nmole (per 25 g)), with skin of hairless mice (300 nmole (per 25 g)) and with skin of hairless mice (1000 nmole (per 25 g)) were 1 ± 1, 1 ± 1 and 5 ± 2, respectively.
For `CC1(C)CC2(CC2)Oc2c(C3CC3)cc(C#Cc3ccc(CC(=O)O)c(F)c3)cc21` [Compound 50, 4-[(8-Cyclopropyl-3,4-dihydro-4,4-dimethylspiro[2H-1-benzopyran-2,1'-cyclopropane]-6-yl)ethynyl]-2-fluoro-benzeneacetic acid], the “Cutaneous Toxicity Score” value with skin of hairless mice (100 nmole (per 25 g)) is 1 ± 0; in the series with skin of hairless mice (300 nmole (per 25 g)), 3 ± 2; in the series on skin of hairless mice (1000 nmole (per 25 g)), 8 ± 2.
Take `CC1(C)CC(C)(C)c2cc(C#Cc3ccc(CC(=O)O)c(F)c3)cc(C3CC3)c2O1` [Compound 38, [4(8-Cyclopropyl-2,2,4,4tetramethyl-chroman-6-yl-ethynyl)-2-fluoro-phenyl]acetic acid]: the “Cutaneous Toxicity Score” value in the series with skin of hairless mice (100 nmole (per 25 g)) worked out at 1 ± 1; with skin of hairless mice (1000 nmole (per 25 g)), 10 ± 1.
Regarding `CC1(C)CCC(=O)c2ccc(C#Cc3ccc(CC(=O)O)c(F)c3)cc21` [Compound 15, [2-Fluoro-4-(8,8-dimethyl-5-oxo-5,6,7,8-tetrahydro-naphthalene-2-yl-ethynl)phenyl]-acetic acid], the “Cutaneous Toxicity Score” value with skin of hairless mice (100 nmole (per 25 g)) was 1 ± 1; in the series on skin of hairless mice (1000 nmole (per 25 g)), 5 ± 2.
As to `Clc1cccc(C(c2ccc3[nH]cnc3c2)n2ccnc2)c1` (centres unmarked) [liarozole], the “retinoid-like effect of treatment (in words)” value in the series on psoriasis was “amelioration of psoriasis”.
`CN(C1CC1)C1CCC(C)(C)c2cc(C#Cc3ccc(CC(=O)O)cc3)ccc21` (centres unmarked) [Compound 8, 4-[(5-(Cyclopropyl-methyl-amino)-8,8-dimethyl-5,6,7,8-tetrahydro-naphthalene-2-yl-ethynyl)-phenyl]-acetic acid]: the “Cutaneous Toxicity Score” value in the series on skin of hairless mice (100 nmole (per 25 g)) turned out to be 5 ± 2; in the series on skin of hairless mice (300 nmole (per 25 g)), 8 ± 3; in the series with skin of hairless mice (1000 nmole (per 25 g)), 12 ± 1.
`CCOC(=O)/C=C(C)/C=C/C=C(C)/C=C/c1c(C)cc(OC)c(C)c1C` [etretinate]: the “skin irritation in humans (in words)” value with human skin is on record as “substantial skin irritation”.
For the compound `CC1(C)CN(C2CC2)Cc2ccc(C#Cc3ccc(CC(=O)O)c(F)c3)cc21` [Compound 22, [4-(2-Cyclopropyl-4,4-dimethyl-1 2,3,4-tetrahydro-isoquinolin-6-yl-ethynyl)-2-fluoro-phenyl]-acetic acid], the “Cutaneous Toxicity Score” value in the series with skin of hairless mice (100 nmole (per 25 g)) worked out at 0 ± 0; in the series with skin of hairless mice (300 nmole (per 25 g)), 0 ± 0; with skin of hairless mice (1000 nmole (per 25 g)) it was 1 ± 1.
Consider `O=C(O)c1ccc(C#Cc2ccc(C3(N(Cc4ccccc4)Cc4ccccc4)CC3)cc2)cc1` [Compound 114], for which the dissociation constant (Kd) at RARβ [2] was over 10 nM.
With `CC1(C)CC(C)(C)c2cc(C#Cc3ccc(CC(=O)O)cc3)cc(C3CC3)c2O1` [Compound 36, [4-(8-Cyclopropyl-2,2,4,4-tetramethyl-chroman-6-yl-ethynyl)phenyl]acetic acid], the figures for the “Cutaneous Toxicity Score” value in the series on skin of hairless mice (100 nmole (per 25 g)) and in the series with skin of hairless mice (1000 nmole (per 25 g)) were 1 ± 1 and 11 ± 0, respectively.
Consider `CN(C1CC1)C1CCC(C)(C)c2cc(C#Cc3ccc(CC(=O)O)c(F)c3)ccc21` (centres unmarked) [Compound 18, [4-(5-(Cyclopropyl-methyl-amino)-8,8-dimethyl-5,6,7,8-tetrahydro-naphthalene-2-yl-ethynyl)-2-fluoro-phenyl]-acetic acid], for which the “Cutaneous Toxicity Score” value with skin of hairless mice (100 nmole (per 25 g)) stood at 0 ± 0; with skin of hairless mice (300 nmole (per 25 g)), 5 ± 2; in the series with skin of hairless mice (1000 nmole (per 25 g)), 10 ± 2.
For `CC1(C)CC2(CC2)Oc2c(C3CC3)cc(C(=O)Oc3ccc(CC(=O)O)cc3)cc21` [Compound 58, Spiro[2H-1-benzopyran-2,1'-cyclopropane]-6-carboxylic acid, 8-cyclopropyl-3,4-dihydro-4,4-dimethyl-, 4-(carboxymethyl)phenyl ester] the same measures were 0 ± 0, 0 ± 0 and 0 ± 0.
Turning to `CC1(C)CC2(CC2)Oc2c(C3CC3)cc(C#Cc3ccc(CC(=O)O)cc3)cc21` [Compound 48, Benzeneacetic acid, 4-[(8-cyclopropyl-3,4-dihydro-4,4-dimethylspiro[2H 1-benzopyran-2.1'-cyclopropane]-6-yl)ethanyl]-], the results for the “Cutaneous Toxicity Score” value in the series on skin of hairless mice (100 nmole (per 25 g)), in the series on skin of hairless mice (300 nmole (per 25 g)) and in the series with skin of hairless mice (1000 nmole (per 25 g)) were 1 ± 1, 3 ± 1 and 7 ± 2, respectively.
For `CC1=C(/C=C/C(C)=C/C=C/C(C)=C\C(=O)O)C(C)(C)CCC1` [13-cis RA], the “skin irritation in humans (in words)” value in the series with human skin was “substantial skin irritation”.
